We go through two compounds from patent publication US10195242B2, “Therapeutic compounds” (Wintermute Biomedical, Inc., priority 2013, dated 2019).

Common to all, as to type: cell-based
Settings in all cases: twenty-four hours after inoculation, combination assay

In assay [1] the test system is methicillin-resistant Staphylococcus aureus (MRSA). The assay is described as follows: In vitro growth inhibition on sheep blood agar (SBA) plates. The method, then: (§1) In vitro testing was conducted to measure the efficacy of WT13-12 at inhibiting the growth of clinically relevant bacteria. […] WT13-12 was streaked across half of a sheep blood agar (SBA) plate and allowed to dry for 15 minutes. The other side was streaked with the vehicle but not containing WT13-12. After drying, 50 μL of purified bacteria at 100,000 col/mL was streaked onto the control and treated sides of the sheep blood agar plates. After streaking, the plates were incubated at 37° C. for 48 hours. Growth was assessed at 24 and 48 hours post-inoculation. Percent inhibition was determined by measuring the treated side vs. the control side with the control side set at 100% growth.
(§2) Each component of WT13-12 was tested individually or in paired combination in the in vitro bacterial growth inhibition assay described above to determine the relative contribution of each component.

Assay [2] concerns Streptococcus agalactiae (Group B beta strep). Description: In vitro growth inhibition on SBA plates. The method, then: as §1, §2
The test system of assay [3] is Streptococcus pyogenes (Group A beta hemolytic strep). The assay is described as follows: In vitro growth inhibition on SBA plates. The method, then: as §1, §2

As to `N=C(N)NCCC[C@H](N)C(=O)O` [L-Arginine], the “growth inhibition of MRSA versus control” value in assay [1] was “no effect”.

On to `C=CCCCCCCCCC(=O)O` [undecylenic acid], for which, in assay [1], the “growth inhibition of MRSA versus control” value is on record as “no effect”. Also, the “growth inhibition of S. agalactiae versus control” value in assay [2] was “significant effect”. Further, the “growth inhibition of S. pyogenes versus control” value in assay [3] is “significant inhibitory effects”.
